The source made the active and inactive calls.
Legend:
[1] = CellTiter-Glo luminescence survival assay, SW480 colon tumor line, concentration-response curve, half-maximal inhibitory concentration (AID 1117338); assay type: functional
[2] = RKO cell viability reduction, dose response, CellTiter-Glo luminescence (AID 1117322); assay type: functional
[3] = cytotoxicity toward HCT116 cells – cell-based, CellTiter-Glo luminescence, IC50, dose response (AID 1117332); assay type: functional; settings: HCT-116
[4] = SNU-C1 cell viability reduction, dose response, CellTiter-Glo luminescence (AID 1117323); assay type: functional, cell-based
[5] = cytotoxicity toward Colo320 cells – cell-based, CellTiter-Glo luminescence, IC50, dose response (AID 1117334); assay type: functional; settings: COLO 320
[6] = cytotoxicity toward HT-29 cells – cell-based, CellTiter-Glo luminescence, IC50, dose response (AID 1117330); assay type: functional
[7] = Reduced DLD-1 viability, concentration-response, CellTiter-Glo luminescence (AID 1117352); assay type: functional
Caspase-3 = molecular target: T1, Caspase-3 (Homo sapiens, UniProt P42574); assay type: functional;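 note: Dose-response selectivity test against caspase-3 for candidate inhibitors of sentrin-specific proteases (SENPs)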
T1 sequence (P42574 whole entry): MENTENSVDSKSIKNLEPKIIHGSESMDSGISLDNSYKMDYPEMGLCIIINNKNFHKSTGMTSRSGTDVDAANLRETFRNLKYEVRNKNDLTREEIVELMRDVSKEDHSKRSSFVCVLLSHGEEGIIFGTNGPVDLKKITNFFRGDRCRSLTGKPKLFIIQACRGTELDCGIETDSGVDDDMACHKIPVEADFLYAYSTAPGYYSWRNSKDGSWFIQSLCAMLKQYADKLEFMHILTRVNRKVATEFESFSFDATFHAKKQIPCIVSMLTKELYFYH

[8] = molecular target: T2, Sentrin-specific protease 7 (Homo sapiens, UniProt Q9BQF6); assay type: functional;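 note: Luminescence-based dose-response confirmation of ultra-high-throughput screening hits, measuring inhibition of SENP7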
T2 sequence (Q9BQF6 whole entry): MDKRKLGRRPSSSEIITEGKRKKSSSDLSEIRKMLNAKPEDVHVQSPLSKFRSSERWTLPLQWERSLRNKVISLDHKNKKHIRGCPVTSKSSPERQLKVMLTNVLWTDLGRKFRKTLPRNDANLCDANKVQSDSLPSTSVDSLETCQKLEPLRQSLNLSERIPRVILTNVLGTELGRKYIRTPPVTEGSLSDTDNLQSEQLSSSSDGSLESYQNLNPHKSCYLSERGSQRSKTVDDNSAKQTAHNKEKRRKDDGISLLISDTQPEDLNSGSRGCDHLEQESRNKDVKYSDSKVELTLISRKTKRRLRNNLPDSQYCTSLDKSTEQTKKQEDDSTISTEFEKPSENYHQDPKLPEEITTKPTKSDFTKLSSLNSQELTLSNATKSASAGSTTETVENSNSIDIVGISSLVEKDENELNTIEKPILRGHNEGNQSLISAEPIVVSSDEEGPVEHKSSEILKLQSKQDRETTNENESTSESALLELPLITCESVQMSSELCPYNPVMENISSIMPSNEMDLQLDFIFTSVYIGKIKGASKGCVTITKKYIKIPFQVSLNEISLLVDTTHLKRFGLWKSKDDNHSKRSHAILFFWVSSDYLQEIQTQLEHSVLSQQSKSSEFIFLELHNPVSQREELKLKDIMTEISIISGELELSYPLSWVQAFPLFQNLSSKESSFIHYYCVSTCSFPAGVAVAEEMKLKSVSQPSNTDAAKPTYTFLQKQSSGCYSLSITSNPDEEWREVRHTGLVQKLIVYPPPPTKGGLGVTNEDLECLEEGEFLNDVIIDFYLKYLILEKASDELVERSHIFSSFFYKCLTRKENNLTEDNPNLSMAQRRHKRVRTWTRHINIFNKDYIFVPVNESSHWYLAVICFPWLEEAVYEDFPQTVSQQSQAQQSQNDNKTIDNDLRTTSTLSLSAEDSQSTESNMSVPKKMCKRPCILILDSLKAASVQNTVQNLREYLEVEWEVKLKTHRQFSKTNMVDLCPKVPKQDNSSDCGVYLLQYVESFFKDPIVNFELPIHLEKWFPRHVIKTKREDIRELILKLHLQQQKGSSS

[9] = molecular target: T3, Sentrin-specific protease 6 (Homo sapiens, UniProt Q9GZR1); assay type: functional;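 note: Luminescence-based dose-response confirmatory assay of SENP6 inhibition, following up an ultra-high-throughput screen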
T3 sequence (Q9GZR1 whole entry): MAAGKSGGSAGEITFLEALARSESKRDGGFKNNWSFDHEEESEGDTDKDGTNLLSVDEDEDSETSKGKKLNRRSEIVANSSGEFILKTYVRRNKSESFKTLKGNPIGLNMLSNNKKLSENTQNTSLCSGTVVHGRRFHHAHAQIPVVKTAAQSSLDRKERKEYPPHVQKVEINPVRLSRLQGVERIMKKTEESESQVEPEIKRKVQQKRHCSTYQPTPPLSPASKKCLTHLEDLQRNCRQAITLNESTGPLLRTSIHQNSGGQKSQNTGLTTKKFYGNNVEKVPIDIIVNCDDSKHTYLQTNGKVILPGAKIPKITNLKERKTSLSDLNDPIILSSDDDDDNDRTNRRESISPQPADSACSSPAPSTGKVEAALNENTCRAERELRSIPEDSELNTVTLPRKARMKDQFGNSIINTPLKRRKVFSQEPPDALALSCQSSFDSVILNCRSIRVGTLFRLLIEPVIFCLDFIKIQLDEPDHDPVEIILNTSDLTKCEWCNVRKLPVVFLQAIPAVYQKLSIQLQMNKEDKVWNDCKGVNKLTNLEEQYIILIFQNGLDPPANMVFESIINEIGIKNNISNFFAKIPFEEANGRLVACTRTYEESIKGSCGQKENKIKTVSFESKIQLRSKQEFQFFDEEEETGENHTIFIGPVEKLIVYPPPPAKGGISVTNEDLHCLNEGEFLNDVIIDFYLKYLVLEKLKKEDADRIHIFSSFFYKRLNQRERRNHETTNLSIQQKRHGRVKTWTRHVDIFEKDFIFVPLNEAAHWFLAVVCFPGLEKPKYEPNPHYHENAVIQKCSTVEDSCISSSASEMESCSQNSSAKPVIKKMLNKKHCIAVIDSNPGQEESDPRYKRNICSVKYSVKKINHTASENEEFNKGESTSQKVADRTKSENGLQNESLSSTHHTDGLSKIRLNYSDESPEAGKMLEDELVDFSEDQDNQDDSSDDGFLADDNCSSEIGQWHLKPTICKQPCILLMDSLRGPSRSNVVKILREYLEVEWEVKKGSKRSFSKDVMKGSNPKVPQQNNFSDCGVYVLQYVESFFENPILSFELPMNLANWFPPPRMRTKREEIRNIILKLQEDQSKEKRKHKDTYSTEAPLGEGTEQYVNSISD

[10] = molecular target: T4, Sentrin-specific protease 8 (Homo sapiens, UniProt Q96LD8); assay type: functional;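 note: luminescence read-out of SENP8 inhibition, dose-response confirmation following an ultra-high-throughput screen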
T4 sequence (Q96LD8 whole entry): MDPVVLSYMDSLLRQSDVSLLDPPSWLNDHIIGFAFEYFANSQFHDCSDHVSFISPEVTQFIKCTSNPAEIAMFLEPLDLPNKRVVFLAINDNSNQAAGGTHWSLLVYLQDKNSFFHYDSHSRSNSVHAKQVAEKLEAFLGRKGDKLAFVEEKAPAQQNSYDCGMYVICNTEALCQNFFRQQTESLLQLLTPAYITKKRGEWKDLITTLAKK

Protein skinhead-1 = molecular target: T5, Protein skinhead-1 (Caenorhabditis elegans, UniProt P34707); assay type: functional
T5 sequence (P34707 whole entry): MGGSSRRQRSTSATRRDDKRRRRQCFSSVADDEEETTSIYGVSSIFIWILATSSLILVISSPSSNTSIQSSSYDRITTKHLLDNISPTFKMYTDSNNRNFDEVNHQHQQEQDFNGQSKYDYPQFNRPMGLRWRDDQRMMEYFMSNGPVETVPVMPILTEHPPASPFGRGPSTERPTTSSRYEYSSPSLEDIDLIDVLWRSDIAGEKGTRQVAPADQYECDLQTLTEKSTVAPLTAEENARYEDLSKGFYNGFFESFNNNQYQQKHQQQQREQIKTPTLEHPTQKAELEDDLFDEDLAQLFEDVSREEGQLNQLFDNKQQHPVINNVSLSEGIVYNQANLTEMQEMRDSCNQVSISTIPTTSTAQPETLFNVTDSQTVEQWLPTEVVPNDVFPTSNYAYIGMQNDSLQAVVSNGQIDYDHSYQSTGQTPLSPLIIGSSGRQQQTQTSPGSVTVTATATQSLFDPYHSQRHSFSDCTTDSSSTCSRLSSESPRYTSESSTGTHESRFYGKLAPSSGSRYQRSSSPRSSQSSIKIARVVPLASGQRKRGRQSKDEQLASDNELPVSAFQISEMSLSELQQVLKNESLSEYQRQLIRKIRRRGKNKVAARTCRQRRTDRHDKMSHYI

[11] = molecular target: T6, Oxysterols receptor LXR-beta (Homo sapiens, UniProt P55055); assay type: functional, cell-based;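 note: Cell-based luminescence dose-response assay of agonist activity at LXR, run as a confirmatory counterscreen to a daf-12 agonist screen; HEK293 cells with Gal4-LXR fusion and GAL4-driven luciferase reporter; agonist potency from rising luciferase signal of a Gal4-LXR reporter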
T6 sequence (P55055 whole entry): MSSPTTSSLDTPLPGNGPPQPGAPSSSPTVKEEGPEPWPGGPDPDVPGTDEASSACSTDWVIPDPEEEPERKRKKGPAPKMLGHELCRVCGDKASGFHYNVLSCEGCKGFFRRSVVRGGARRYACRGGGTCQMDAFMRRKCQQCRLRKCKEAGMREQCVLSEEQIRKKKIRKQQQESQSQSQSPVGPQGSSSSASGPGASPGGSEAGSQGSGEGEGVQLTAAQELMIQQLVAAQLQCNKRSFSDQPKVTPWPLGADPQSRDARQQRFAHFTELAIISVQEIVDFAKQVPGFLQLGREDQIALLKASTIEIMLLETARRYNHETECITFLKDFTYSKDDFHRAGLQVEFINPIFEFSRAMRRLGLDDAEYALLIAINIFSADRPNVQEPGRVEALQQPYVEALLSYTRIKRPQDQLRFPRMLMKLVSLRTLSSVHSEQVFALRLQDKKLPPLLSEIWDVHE

Kallikrein-7 = Kallikrein-7 (Homo sapiens, UniProt P49862); assay: Fluorescence Intensity-based biochemical primary high throughput dose response assay to identify activators of kallikrein-7 (K7) zymogen.
Chain of Kallikrein-7 (P49862 whole entry): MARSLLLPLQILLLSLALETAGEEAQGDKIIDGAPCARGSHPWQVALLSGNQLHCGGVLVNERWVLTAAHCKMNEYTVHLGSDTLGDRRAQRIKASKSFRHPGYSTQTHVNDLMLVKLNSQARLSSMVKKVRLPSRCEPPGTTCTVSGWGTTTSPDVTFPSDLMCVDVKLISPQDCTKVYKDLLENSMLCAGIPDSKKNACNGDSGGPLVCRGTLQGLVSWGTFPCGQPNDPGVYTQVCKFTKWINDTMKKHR

Structure (SMILES): CNS(=O)(=O)Cc1ccc2[nH]cc(CCN(C)C)c2c1
- IC50 [1]: > 6.67 µM (inactive)
- IC50 [2]: > 20 µM (inactive)
- IC50 [3]: > 20 µM (inactive)
- IC50 [4]: > 20 µM (inactive)
- IC50 [5]: > 20 µM (inactive)
- IC50 [6]: > 20 µM (inactive)
- IC50 [7]: > 20 µM (inactive)

Structure (SMILES): Cc1ccccc1-c1nc(-c2ccc(Br)o2)no1
- IC50 (Caspase-3): 17 µM (active)
- IC50 [8]: 4.23 µM (active)
- IC50 [9]: 23.5 µM (active)
- IC50 [10]: 35.8 µM (active)
- IC50 (Protein skinhead-1): 39.7 µM (active)
- EC50 [11]: > 67.6 µM (inactive)
- EC50 (cells): > 67.6 µM (inactive)

Structure (SMILES): CC1=NN(C(N)=S)C(=O)C1N=Nc1ccc(C)cc1C (stereo not given)
- EC50 [11]: > 67.5 µM (inactive)
- EC50 (cells): > 67.5 µM (inactive)

Structure (SMILES): CCOC(=O)CC(=O)CSc1nc(C)cc(-c2cccnc2)c1C#N
- EC50 (Kallikrein-7): 8.07 µM (active)

Structure (SMILES): Cc1cc(C)n2cc(CSCc3ccccc3)nc2n1
- EC50 (Kallikrein-7): 49.5 µM (inactive)

Structure (SMILES): COc1cccc(-c2nc(-c3ccccc3)no2)c1
- EC50 [11]: > 67.6 µM (inactive)
- EC50 (cells): > 67.6 µM (inactive)
